According to US6972299B2, “Phenylethynyl and styryl derivatives of imidazole and fused ring heterocycles” (Hoffmann-La Roche Inc., priority 2000, dated 2005):

Target: T1, rat mGlu 5a receptor (Rattus norvegicus, UniProt P31424)
T1 construct: expressed in transfected cells; host or cells: EBNA cells (transient transfection)
Assay: [Ca2+]i measurement (FLIPR) on mGlu 5a transfected EBNA cells, antagonist mode
Format: cell-based
Conditions: rat mGlu 5a transiently transfected EBNA cells, Fluo 3-AM, tested against 10 μM glutamate as agonist
Method: The pharmacological activity of all of the example compounds was tested using the following method: • cDNA encoding rat mGlu 5a receptor was transiently transfected into EBNA cells using a procedure described by E.-J. Schlaeger and K. Christensen (Transient gene expression in mammalian cells grown in serum-free suspension culture; Cytotechnology, 30: 71-83,1999). [Ca^2+]i measurements were performed on mGlu 5a transfected EBNA cells after incubation of the cells with Fluo 3-AM (obtainable by FLUKA, 0.5 μM final concentration) for 1 hour at 37° C. followed by 4 washes with assay buffer (DMEM supplemented with Hank's salt and 20 mM HEPES. [Ca^2+]i measurements were done using a fluorometric imaging plate reader (FLIPR, Molecular Devices Corporation, La Jolla, Calif., USA). When compounds were evaluated as antagonists they were tested against 10 μM glutamate as agonist.
The inhibition (antagonists) curves were fitted with a four parameter logistic equation giving IC50, and Hill coefficient using the iterative non linear curve fitting software Origin (Microcal Software Inc., Northampton, Mass., USA).

T1 sequence (P31424 21-1171 isoform P31424-2 limits assumed): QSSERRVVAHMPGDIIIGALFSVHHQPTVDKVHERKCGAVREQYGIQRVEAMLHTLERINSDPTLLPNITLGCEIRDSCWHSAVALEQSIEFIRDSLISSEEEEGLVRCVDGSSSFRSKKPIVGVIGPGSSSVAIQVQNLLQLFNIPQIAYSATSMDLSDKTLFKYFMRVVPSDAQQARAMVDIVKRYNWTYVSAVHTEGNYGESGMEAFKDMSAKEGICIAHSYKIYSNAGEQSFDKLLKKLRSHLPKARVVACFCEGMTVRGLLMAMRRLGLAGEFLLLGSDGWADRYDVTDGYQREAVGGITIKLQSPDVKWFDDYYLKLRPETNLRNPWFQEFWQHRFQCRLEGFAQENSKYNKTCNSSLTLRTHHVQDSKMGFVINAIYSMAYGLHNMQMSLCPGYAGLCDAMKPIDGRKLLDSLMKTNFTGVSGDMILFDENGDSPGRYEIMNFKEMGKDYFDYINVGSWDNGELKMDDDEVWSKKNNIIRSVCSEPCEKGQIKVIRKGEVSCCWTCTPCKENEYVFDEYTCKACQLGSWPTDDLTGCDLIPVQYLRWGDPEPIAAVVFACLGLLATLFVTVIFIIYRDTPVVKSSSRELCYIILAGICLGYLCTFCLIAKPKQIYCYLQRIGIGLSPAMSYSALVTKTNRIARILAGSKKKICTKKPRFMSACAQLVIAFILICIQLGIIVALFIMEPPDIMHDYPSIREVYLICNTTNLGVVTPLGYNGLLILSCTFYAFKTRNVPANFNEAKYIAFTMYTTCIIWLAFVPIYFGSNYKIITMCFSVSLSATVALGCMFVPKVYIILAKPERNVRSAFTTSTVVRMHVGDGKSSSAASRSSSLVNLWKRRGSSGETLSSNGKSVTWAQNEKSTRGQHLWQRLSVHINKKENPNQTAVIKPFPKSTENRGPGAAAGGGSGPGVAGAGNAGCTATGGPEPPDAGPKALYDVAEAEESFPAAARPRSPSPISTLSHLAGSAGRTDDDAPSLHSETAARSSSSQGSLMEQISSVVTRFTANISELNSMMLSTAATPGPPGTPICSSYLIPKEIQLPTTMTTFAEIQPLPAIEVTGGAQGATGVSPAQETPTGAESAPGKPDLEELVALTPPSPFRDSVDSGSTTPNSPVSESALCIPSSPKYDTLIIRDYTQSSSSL

With CCOC(=O)c1c(C)nc(C#Cc2ccccc2)n1C [Example 1, 3,5-Dimethyl-2-phenylethynyl-3H-imidazole-4-carboxylic acid ethyl ester] as the molecule, how does the IC50 read?
Its IC50 is 250 nM.

For C(#Cc1ncn2c1CSc1ncccc1-2)c1ccccc1 [Example 24, 3-Phenylethynyl-4H-5-thia-2,6,9b-triaza-cyclopenta[a]naphthalene], which IC50 is on record?
The IC50 was 150 nM.

With Cc1nc(C#Cc2ccccc2)c([N+](=O)[O-])n1CC(O)CCl (stereo not drawn) [Example 26, 1-Chloro-3-(2-methyl-5-nitro-4-phenylethynyl-imidazol-1-yl)-propan-2-ol] as the molecule, how does the IC50 read?
The IC50 was 230 nM.

Which IC50 does the source give for Cn1ccnc1C#Cc1ccccc1 [Example 4, 1-Methyl-2-phenylethynyl-1H-imidazole] here?
Its IC50 is 720 nM.

For COc1ccc(C=Cc2nc(C(C)C)c(C(C)C)n2C)cc1 [Example 37, 4,5-diisopropyl-2-[2-(4-methoxy-phenyl)-vinyl]-1-methyl-1H-imidazole], which IC50 is on record?
Its IC50 is 5000 to 10000 nM.

For Cc1noc(-c2c(C)nc(C#Cc3ccccc3)n2C)n1 [Example 12, 5-(3,5-Dimethyl-2-phenylethynyl-3H-imidazol-4-yl)-3-methyl-[1,2,4]oxadiazole], which IC50 is on record?
The IC50 was 11 nM.

Which IC50 does the source give for C(#Cc1c[nH]cn1)c1ccccc1 [Example 28, 4-Phenylethynyl-1H-imidazole] here?
The IC50 was 3360 nM.

Which IC50 does the source give for Cn1cnc(Br)c1C=Cc1ccccc1 [Example 43, 4-Bromo-1-methyl-5-styryl-1H-imidazole] here?
Its IC50 is 3060 nM.

Which IC50 does the source give for CCOC(=O)c1nc(C#Cc2ccccc2)n(-c2ccccc2)c1C [Example 8, 5-Methyl-1-phenyl-2-phenylethynyl-1H-imidazole-4-carboxylic acid ethyl ester] here?
The IC50 was < 10000 nM.

With CCCCOc1ccc(C=Cc2nc(C(C)C)c(C(C)C)n2C)cc1 [Example 35, 2-[2-(4-Butoxy-phenyl)-vinyl]-4,5-diisopropyl-1-methyl-1H-imidazole] as the molecule, how does the IC50 read?
The IC50 was 5000 to 10000 nM.

For CCOC(=O)c1c(C)nc(C#Cc2cccc(OC)c2)n1C [Example 3, 2-(3-Methoxy-phenylethynyl)-3,5-dimethyl-3H-imidazole-4-carboxylic acid ethyl ester], which IC50 is on record?
The IC50 was 350 nM.

With CCOC(=O)c1c(C)nc(C#Cc2cccc(-n3c(C)ccc3C)c2)n1C [Example 11] as the molecule, how does the IC50 read?
Its IC50 is 180 nM.

Which IC50 does the source give for Cn1cncc1C=Cc1ccccc1 [Example 44, 1-Methyl-5-styryl-1H-imidazole] here?
Its IC50 is 8000 nM.

For CCOC(=O)c1c(C)nc(C#Cc2cccc(C)c2)n1C [Example 9, 3,5-dimethyl-2-m-tolylethynyl-3H-imidazole-4-carboxylic acid ethyl ester], which IC50 is on record?
Its IC50 is 130 nM.

Which IC50 does the source give for CCOC(=O)c1[nH]c(C#Cc2ccccc2)nc1C [Example 2, 5-Methyl-2-phenylethynyl-3H-imidazole-4-carboxylic acid ethyl ester] here?
Its IC50 is 2400 nM.

Which IC50 does the source give for C(#Cc1ncc[nH]1)c1ccccc1 [Example 6, 2-Phenylethynyl-1H-imidazole] here?
Its IC50 is 200 nM.

For Cc1cc(C#Cc2ccccc2)n(C)n1 [Example 31, 1,3-Dimethyl-5-phenylethynyl-1H-pyrazole], which IC50 is on record?
The IC50 was 5000 to 10000 nM.

With Cc1nc(C#Cc2ccccc2)c([N+](=O)[O-])n1C [Example 30, 1,2-Dimethyl-5-nitro-4-phenylethynyl-1H-imidazole] as the molecule, how does the IC50 read?
The IC50 was 20 nM.

For CCOC(=O)c1c(C)nc(C#Cc2ccccc2F)n1C [Example 17, 2-(2-Fluoro-phenylethynyl)-3,5-dimethyl-3H-imidazole-4-carboxylic acid ethyl ester], which IC50 is on record?
The IC50 was 90 nM.

For CC(C)c1nc(C=Cc2ccccc2)n(C)c1C(C)C [Example 32, 4,5-Diisopropyl-1-methyl-2-styryl-1H-imidazole], which IC50 is on record?
The IC50 was 1820 nM.

For Cn1ccnc1C#Cc1ccccc1F [Example 18, 2-(2-Fluoro-phenylethynyl)-1-methyl-1H-imidazole], which IC50 is on record?
Its IC50 is 70 nM.

For COc1ccc2[nH]c(C#Cc3ccccc3)c(CCNC(C)=O)c2c1 [Example 23, N-[2-(5-Methoxy-2-phenylethynyl-1H-indol-3-yl)-ethyl]-acetamide], which IC50 is on record?
The IC50 was 580 nM.

Which IC50 does the source give for CCOC(=O)Cn1c(C#Cc2ccccc2)nc(Cl)c1Cl [Example 21, (4,5-Dichloro-2-phenylethynyl-imidazol-1-yl)-acetic acid ethyl ester] here?
The IC50 was 520 nM.

For Cn1cnc(C#Cc2ccccc2)c1C=O [Example 27, 3-Methyl-5-phenylethynyl-3H-imidazole-4-carbaldehyde], which IC50 is on record?
The IC50 was 1790 nM.

Which IC50 does the source give for CCOC(=O)c1c(C)nc(C#Cc2cccc(NC(C)=O)c2)n1C [Example 10, 2-(3-Acetylamino-phenylethynyl)-3,5-dimethyl-3H-imidazole-4-carboxylic acid ethyl ester] here?
The IC50 was 2120 nM.

For Cn1cncc1C#Cc1ccccc1 [Example 22, 1-Methyl-5-phenylethynyl-1H-imidazole], which IC50 is on record?
Its IC50 is 220 nM.

With CCOC(=O)c1c(C)nc(C#Cc2ccc(-c3ccccc3)cc2)n1C [Example 16, 2-Biphenyl-4-ylethynyl-3,5-dimethyl-3H-imidazole-4-carboxylic acid ethyl ester] as the molecule, how does the IC50 read?
The IC50 was 210 nM.

For CC(C)c1nc(C=Cc2ccc(Cl)cc2)n(C)c1C(C)C [Example 34, 2-[2-(4-Chloro-phenyl)-vinyl]-4,5-diisopropyl-1-methyl-1H-imidazole], which IC50 is on record?
The IC50 was 5000 to 10000 nM.

Which IC50 does the source give for Cc1ccc(C=Cc2nc(C(C)C)c(C(C)C)n2C)cc1 [Example 42, 4,5-Diisopropyl-1-methyl-2-(2-p-tolyl-vinyl)-1H-imidazole] here?
The IC50 was 3250 nM.

Which IC50 does the source give for COc1cc(C)c(C=Cc2nc(C(C)C)c(C(C)C)n2C)c(C)c1C [Example 36, 4,5-Diisopropyl-2-[2-(4-methoxy-2,3,6-trimethyl-phenyl)-vinyl]-1-methyl-1H-imidazole] here?
Its IC50 is 5000 to 10000 nM.

With O=[N+]([O-])c1cnc(C#Cc2ccccc2)n1CCO [Example 5, 2-(5-Nitro-2-phenylethynyl-imidazol-1-yl)-ethanol] as the molecule, how does the IC50 read?
The IC50 was 2110 nM.

With Cn1cnc(C#Cc2ccccc2)c1 [Example 29, 1-Methyl-4-phenylethynyl-1H-imidazole] as the molecule, how does the IC50 read?
The IC50 was 500 nM.

With Cn1ccnc1C#Cc1ccccc1Cl [Example 20, 2-(2-Chloro-phenylethynyl)-1-methyl-1H-imidazole] as the molecule, how does the IC50 read?
Its IC50 is 1100 nM.

With CCOC(=O)c1c(C)nc(C#Cc2ccc(N)cc2)n1C [Example 19, 2-(4-Amino-phenylethynyl)-3,5-dimethyl-3H-imidazole-4-carboxylic acid ethyl ester] as the molecule, how does the IC50 read?
Its IC50 is 1530 nM.

For CCOC(=O)c1c(C)nc(C#Cc2ccc(F)cc2)n1C [Example 15, 2-(4-Fluoro-phenylethynyl)-3,5-dimethyl-3H-imidazole-4-carboxylic acid ethyl ester], which IC50 is on record?
The IC50 was 250 nM.

For CCOC(=O)c1c(C)nc(C#Cc2ccc(Cl)cc2)n1C [Example 14, 2-(4-Chloro-phenylethynyl)-3,5-dimethyl-3H-imidazole-4-carboxylic acid ethyl ester], which IC50 is on record?
The IC50 was < 10000 nM.

With CC(C)c1nc(C=Cc2ccc(F)cc2)n(C)c1C(C)C [Example 33, 2-[2-(4-Fluoro-phenyl)-vinyl]-4,5-diisopropyl-1-methyl-1H-imidazole] as the molecule, how does the IC50 read?
Its IC50 is 5000 to 10000 nM.

Tested on: not given
Assay: not given
Conditions: not given

Which melting point does the source give for Cc1noc(-c2c(C)nc(C#Cc3ccccc3)n2C)n1 [Example 12, 5-(3,5-Dimethyl-2-phenylethynyl-3H-imidazol-4-yl)-3-methyl-[1,2,4]oxadiazole] here?
The melting point was 137 °C.

For Cc1nc(C#Cc2ccccc2)n(C)c1-c1nc(C2CC2)no1 [Example 13, 3-Cyclopropyl-5-(3,5-dimethyl-2-phenylethynyl-3H-imidazol-4-yl)-[1,2,4]oxadiazole], which melting point is on record?
Its melting point is 120 °C.
